Experimental data: US10226457B2, “Systems and methods for treating an opioid-induced adverse pharmacodynamic response” (Purdue Pharma L.P., priority 2014, dated 2019)

Experiments:
male Sprague-Dawley rats [1] = assay: Stomach weight (gastric emptying) after charcoal meal; type: in vivo, rat; conditions: morphine sulfate 1-10 mg/kg SC, 0.5 hour before charcoal meal; vs vehicle
Method: Morphine sulfate (1-10 mg/kg) or 0.9% normal saline (vehicle) was administered SC to the test subjects. 0.5 hour later, a charcoal meal (1 ml/100 grams) was administered PO to the test subjects. One hour after the charcoal meal, the test subjects were euthanized by CO2 and the stomachs were removed and weighed. Data were analyzed using a one-way ANOVA followed by the Dunnett's Multiple Comparisons test where *P<0.05, **P<0.01 and ***P<0.001. […] This effect was dose dependent with a greater magnitude of effect observed with increasing dose.

male Sprague-Dawley rats [2] = assay: Rat hot plate assay; conditions: for hot plate MED (acute pain): 52° C., cutoff 30 seconds
Method: Morphine sulphate (1-10 mg/kg) was dissolved in 0.9% normal saline solution (NSS)(vehicle) and administered SC 1 hour prior to testing against vehicle. Data were analyzed by a two-way ANOVA using a Bonferroni Multiple Comparison Test,***P<0.001.
Morphine sulphate (1-10 mg/kg) was dissolved in 0.9% normal saline solution (NSS)(vehicle) and administered SC 1 hour prior to testing against vehicle. % MPE=Percent Maximum Possible Effect. % MPE=(test latency-baseline)/(cutoff-baseline). Data was analyzed using a Bonferroni Multiple Comparison Test,***P<0.001.
Morphine sulphate (10 mg/kg), the positive control, was dissolved in 0.9% NSS (vehicle). The formulations were administered SC 1 hour prior to testing against vehicle. Data were analyzed by a two-way ANOVA using a Bonferroni multiple comparisons test, where *P<0.05 and ***P<0.001. Data are represented as the means+S.E.M.
Morphine sulphate (10 mg/kg) was dissolved in 0.9% NSS (vehicle). The formulations were administered SC 1 hour prior to testing against vehicle. % MPE=Percent Maximum Possible Effect. % MPE=(test latency-baseline)/(cutoff (30 s)-baseline). Data were analyzed by a two-way ANOVA using Bonferroni Multiple Comparisons test for post-hoc analysis, where *P<0.05 and ***P<0.001. Data are represented as the means+SEM.
The positive control, morphine sulfate in 0.9% NS, was administered SC 1 hour prior to testing. Rats were assessed one day prior (BL) and then 1, 3 and 5 hours post-dosing. Hot Plate was set to 52° C. and cutoff was 30 seconds. Data were analyzed by a two-way ANOVA using a Bonferroni Multiple Comparisons Test, where *P<0.05, ***P<0.001 and ****P<0.0001 versus vehicle. Data are represented as the means+S.E.M from two combined studies.
Oxycodone hydrochloride (0.3-5 mg/kg) was dissolved in 0.9% normal saline solution (NSS)(vehicle) and administered SC 1 hour prior to testing against vehicle. Hot plate was set to 52° C. and cutoff was 30 seconds. Data were analyzed by a two-way ANOVA using a Bonferroni multiple comparisons test, where ****P<0.0001. Data are represented as the means+S.E.M.
Compound was administered SC 1 hour prior to testing. Oxycodone hydrochloride (0.3-5 mg/kg) was dissolved in 0.9% normal saline solution (NSS)(vehicle) and administered SC 1 hour prior to testing against vehicle. Hot plate was set to 52° C. and cutoff was 30 seconds. % MPE=. Percent Maximum Possible Effect. % MPE=(test latency-baseline)/(cutoff (30 s)-baseline). Data were analyzed by a two-way ANOVA using Bonferroni Multiple Comparisons test for post-hoc analysis, ****P<0.000. Data are represented as the means+SEM.
Oxycodone HCl was administered SC 1 hour prior to testing. Thermal latency was assessed the day prior (BL) and then 1, 3 and 5 hours post-oxycodone dosing. The hotplate was set to 52° C. and the cutoff was 30 seconds. Oxycodone was dissolved in 0.9% NS (vehicle). […] Data were analyzed by a two-way ANOVA using the Bonferroni Multiple Comparisons test for post-hoc analysis where, ***P<0.001. Data are represented as the means+SEM.
Oxycodone HCl was administered PO 1 hour prior to testing, while morphine sulfate, the positive control, was administered SC 1 hour prior to testing. Behavior was assessed the day prior (BL) and then 1, 3, 5 and 24 hours post-compound administration. The hot plate was set to 52° C. and the cutoff was 30 seconds. Oxycodone was dissolved in water (vehicle), while morphine sulfate was dissolved in 0.9% NS. Data were analyzed by a two-way ANOVA using a Bonferroni Multiple Comparisons Test, where ****P<0.0001.
Rats were assessed for thermal latency the day prior to dosing, then 1.5, 3 and 5 hours post-morphine administration. Data were analyzed by a two-way ANOVA using the Bonferroni Multiple Comparisons Test, where ****P<0.0001 compared to vehicle+vehicle. Data are represented as the means+S.E.M.

male Sprague-Dawley rats [3] = assay: Rat tail flick assay; conditions: for tail flick MED (acute pain): intensity 40, cutoff 20 seconds
Method: Morphine sulphate (1-10 mg/kg) was dissolved in 0.9% normal saline solution (NSS)(vehicle) and administered SC 1 hour prior to testing against vehicle. Data were analyzed by a two-way ANOVA using a Bonferroni post-hoc test, *P<0.05, ***P<0.001.
Morphine sulphate (1-10 mg/kg) was dissolved in 0.9% normal saline solution (NSS)(vehicle) and administered SC 1 hour prior to testing against vehicle. % MPE=Percent of Maximum Possible Effect. % MPE=(test latency-baseline)/(cutoff(20 s)-baseline)*100. Data were analyzed by a two-way ANOVA using a Bonferroni post-hoc test, *P<0.05, **P<0.01, ***P<0.001.
Morphine sulphate (10 mg/kg) was dissolved in 0.9% NSS (vehicle). The formulations were administered SC 1 hour prior to testing against vehicle. Data were analyzed by a two-way ANOVA using a Bonferroni multiple comparisons test, *P<0.05, ***P<0.001.
Morphine sulphate (10 mg/kg) was dissolved in 0.9% NSS (vehicle). The formulations were administered SC 1 hour prior to testing against vehicle. % MPE=Percent Maximum Possible Effect. % MPE=(test latency-baseline)/(cutoff(20 s)-baseline)*100. Data were analyzed by a two-way ANOVA using a Bonferroni multiple comparisons test, ***P<0.001.
The positive control, morphine sulfate in 0.9% NS was administered SC 1 hour prior to testing. Rats were assessed the day prior (BL) and then 1, 3 and 5 hours post-dosing. Tail Flick was set to 40 intensity and cutoff 20 seconds. Data were analyzed by a two-way ANOVA using a Bonferroni Multiple Comparisons Test, where *P<0.05,***P<0.001 and ****P<0.0001. Data are represented as the means+S.E.M of two combined studies.
Oxycodone hydrochloride (0.3-5 mg/kg) was dissolved in 0.9% normal saline solution (NSS)(vehicle) and administered SC 1 hour prior to testing against vehicle. Data were analyzed by a two-way ANOVA using a Bonferroni multiple comparisons test, ****P<0.001.
Oxycodone hydrochloride (0.3-5 mg/kg) was dissolved in 0.9% normal saline solution (NSS)(vehicle) and administered SC 1 hour prior to testing against vehicle. % MPE=Percent Maximum Possible Effect. % MPE=(test latency-baseline)/(cutoff(20 s)-baseline)*100. Data were analyzed by a two-way ANOVA using a Bonferroni multiple comparisons test, ****P<0.001.
Oxycodone HCl and vehicle were administered SC 1 hour prior to testing. Rats were assessed one day prior (BL) and then 1, 3 and 5 hours post-oxycodone administration. The tail flick was set to an intensity of 40 and the cutoff was 20 seconds. Oxycodone was dissolved in 0.9% (vehicle). […] Data were analyzed by a two-way ANOVA followed by the Bonferroni Multiple Comparisons Test where, *P<0.05 and ****P<0.001.
Oxycodone HCl was administered PO 1 hour prior to testing, while morphine sulfate, the positive control, was administered SC 1 Hour prior to testing. Behavior was assessed the day prior (BL) to dosing, and then 1, 3, 5 and 24 hours post-compound administration. The tail flick was set to an intensity of 40 and 20 seconds was used as the cutoff. Oxycodone was dissolved in water (vehicle), while morphine was dissolved in 0.9% NS. Data were analyzed by a two-way ANOVA using a Bonferroni Multiple Comparisons Test, where *P<0.05, **P<0.01, ***P<0.001 and * * * *P<0.0001.
Rats were assessed for tail flick latency the day prior to dosing, then 1.5, 3 and 5 hours post-morphine administration. Data were analyzed by a two-way ANOVA using the Bonferroni Multiple Comparisons Test, where ****P<0.0001 compared to vehicle+vehicle. Data are represented as the means+S.E.M.
Rats were assessed for thermal latency 1.5, 3 and 5 hours post-morphine administration. % MPE=Percent Maximum Possible Effect. % MPE=(test latency-baseline)/(cutoff(20 s)-baseline)*100. Data were analyzed by a two-way ANOVA using a Bonferroni multiple comparisons test for post-hoc analysis where *P<0.05 and ****P<0.001. Data are represented as the means+SEM.
Rats were tested 1 hour after oxycodone injection.

male Sprague-Dawley rats [4] = assay: Charcoal meal GI transit, opioid alone; conditions: for GI transit (% of the small intestine travelled by a charcoal meal): vs vehicle
Method: 0.5 hour later, a charcoal meal (1 ml/100 grams) was orally administered (PO) to the test subjects.
One hour after the charcoal meal, the test subjects were euthanized by CO2 and the gastrointestinal tract was removed from the stomach to the cecum. The length of the small intestine and the distance (cm) to the leading edge of the charcoal were recorded. Data were analyzed using a one-way ANOVA followed by the Dunnett's Multiple Comparisons test where *P<0.05, **P<0.01 and***P<0.001.
The length of the small intestine and the distance (cm) to the leading edge of the charcoal were recorded. Data were analyzed using a one-way ANOVA followed by Bonferroni's Multiple Comparisons Test where *P<0.05, **P<0.01 and ****P<0.001 vs. vehicle. Data are represented as the means+S.E.M.
One hour after charcoal, all rats were euthanized by CO2 and the GI tract was removed from the stomach to the cecum. The length of the small intestine and the distance (cm) to the leading edge of charcoal was recorded. Data were analyzed using a one-way ANOVA with Bonferonni's Post-Test where ****P<0.0001 vs. vehicle. Data are represented as the means+S.E.M.
One hour later, the rats were euthanized by CO2 and the gastrointestinal tract was removed from the stomach to the cecum. The length of the small intestine and the distance (cm) to the leading edge of charcoal were recorded. Data were analyzed using a one-way ANOVA followed by the Dunnett's Multiple Comparisons test where ***P<0.001. Data are represented as the mean+S.E.M.
Rats were dosed with Oxycodone HCl/Oxy or vehicle (water) PO once daily for 5 days (chronic). Additional groups were dosed only once on day 5 (acute). […] One hour after charcoal, all rats were euthanized by CO2 and the GI tract was removed from the stomach to the cecum. The length of the small intestine and the distance (cm) to the leading edge of charcoal was recorded. Data were analyzed using a one-way ANOVA with Bonferonni's Multiple Comparison Test where * P<0.05, ****P<0.0001 vs. vehicle (chronic), ### vs. oxycodone (acute). Data are represented as the means+S.E.M.

[5] = morphine sulphate 1-10 mg/kg SC 1 hour prior to testing
[6] = oxycodone hydrochloride 0.3-5 mg/kg SC 1 hour prior to testing

SMILES	stomach weight (gastric emptying) (male Sprague-Dawley rats [1])	hot plate % MPE (male Sprague-Dawley rats [2]; [5])	hot plate latency to nocifensive response (male Sprague-Dawley rats [2]; [5])	tail flick % MPE (male Sprague-Dawley rats [3]; [5])	tail flick latency to nocifensive response (male Sprague-Dawley rats [3]; [5])	GI transit (% of the small intestine travelled by a charcoal meal) (male Sprague-Dawley rats [4]; morphine sulfate 1-10 mg/kg SC, 0.5 hour before charcoal meal)	rats found dead (male Sprague-Dawley rats [2]; oxycodone HCl 10 mg/kg SC, at the 3 hr time point)	hot plate MED (acute pain) (male Sprague-Dawley rats [2]; oxycodone HCl PO) [mg/kg]	hot plate MED (acute pain) (male Sprague-Dawley rats [2]; oxycodone HCl SC) [mg/kg]	hot plate % MPE (male Sprague-Dawley rats [2]; [6])	hot plate latency to nocifensive response (male Sprague-Dawley rats [2]; [6])	rats found dead (male Sprague-Dawley rats [3]; oxycodone HCl 10 mg/kg SC dosing group, at the 3 hr time point)	tail flick MED (acute pain) (male Sprague-Dawley rats [3]; oxycodone HCl PO) [mg/kg]	tail flick MED (acute pain) (male Sprague-Dawley rats [3]; oxycodone HCl SC) [mg/kg]	tail flick % MPE (male Sprague-Dawley rats [3]; [6])	tail flick latency to nocifensive response (male Sprague-Dawley rats [3]; [6])	tolerance to inhibition of GI transit on repeated dosing (male Sprague-Dawley rats [4]; oxycodone HCl PO once daily for 5 days (chronic) vs single dose on day 5 (acute))	GI transit (% of the small intestine travelled by a charcoal meal) (male Sprague-Dawley rats [4]; oxycodone hydrochloride 0.3-5 mg/kg SC, 1 hour before charcoal meal)
CN1CC[C@]23c4c5ccc(O)c4O[C@H]2[C@@H](O)C=C[C@H]3[C@H]1C5.O=S(=O)(O)O [morphine, morphine sulphate]	increased stomach weight due to delayed gastric emptying	increased % of the maximal possible effect	increased latency to nocifensive response	increased % of the maximal possible effect	increased latency to nocifensive response	decreases gastrointestinal transit	–	–	–	–	–	–	–	–	–	–	–	–
COc1ccc2c3c1O[C@H]1C(=O)CC[C@@]4(O)[C@@H](C2)N(C)CC[C@]314.Cl [oxycodone, oxycodone hydrochloride]	–	–	–	–	–	–	4 out of 10	10	3	increased % of the maximal possible effect	increased latency to nocifensive response	4 out of 10	10	3	increased % of the maximal possible effect	increased latency to nocifensive response	produces some tolerances to its acute effect on the inhibition of GI transit	decreases gastrointestinal transit
